The results in this text go back to patent US20240360151A1 (SANOFI, priority 2023, published 2024).

Structures are written as SMILES. A value given as a limit tells only on which side of the number the result lay.

As a reminder, the IC50 is the concentration that gives 50% inhibition.

For experiment [1], the target named is T1, NLRP3 inflammasome (Homo sapiens, UniProt Q96P20).
T1 construct: endogenous in cells; host or cells: THP-1 monocytic cells
The experiment is described as follows: IL-1β secretion assay (NLRP3 IC50) in LPS-primed, nigericin-activated THP-1 cells, HTRF. In kind it is cell-based. To be noted: monocytic THP-1 cells; LPS 10 ng/mL 3 h priming, then compound + nigericin 10 μM 2 h; relative IC50, 10 concentrations, geometric mean. In outline: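 IL-1β in supernatant read by HTRF after 2 h co-incubation of compound (0.1% DMSO, 10 concentrations, 1:3 series) with nigericin at 10 μM final, following 3 h LPS (10 ng/mL) priming of THP-1 monocytes at 37° C. Inhibition normalised to unactivated and no-compound controls; geometric-mean relative IC50 from 4-parameter logistic model.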
Background: TR-FRET usually uses a lanthanide donor and a delayed reading to cut background.

The test system of experiment [2] is NF-kB pathway (TNF-α secretion by THP-1 cells). The experiment is described as follows: TNF-α secretion assay in LPS-stimulated THP-1 cells, Lumit immunoassay. In kind it is cell-based, human. To be noted: Homo sapiens, THP-1, 3 h, monocytic THP-1 cells, LPS 10 ng/mL, relative IC50, 10 concentrations, geometric mean. In outline: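 TNF-α release was quantified directly in the cell plate by Lumit immunoassay after a 3-h, 10 ng/mL LPS trigger of compound-treated THP-1 cells (RPMI, 5% FBS). Percent inhibition versus no-compound and unstimulated controls fed a 4-parameter logistic fit over 10 concentrations, giving geometric-mean relative IC50.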

T1 sequence (Q96P20 whole entry): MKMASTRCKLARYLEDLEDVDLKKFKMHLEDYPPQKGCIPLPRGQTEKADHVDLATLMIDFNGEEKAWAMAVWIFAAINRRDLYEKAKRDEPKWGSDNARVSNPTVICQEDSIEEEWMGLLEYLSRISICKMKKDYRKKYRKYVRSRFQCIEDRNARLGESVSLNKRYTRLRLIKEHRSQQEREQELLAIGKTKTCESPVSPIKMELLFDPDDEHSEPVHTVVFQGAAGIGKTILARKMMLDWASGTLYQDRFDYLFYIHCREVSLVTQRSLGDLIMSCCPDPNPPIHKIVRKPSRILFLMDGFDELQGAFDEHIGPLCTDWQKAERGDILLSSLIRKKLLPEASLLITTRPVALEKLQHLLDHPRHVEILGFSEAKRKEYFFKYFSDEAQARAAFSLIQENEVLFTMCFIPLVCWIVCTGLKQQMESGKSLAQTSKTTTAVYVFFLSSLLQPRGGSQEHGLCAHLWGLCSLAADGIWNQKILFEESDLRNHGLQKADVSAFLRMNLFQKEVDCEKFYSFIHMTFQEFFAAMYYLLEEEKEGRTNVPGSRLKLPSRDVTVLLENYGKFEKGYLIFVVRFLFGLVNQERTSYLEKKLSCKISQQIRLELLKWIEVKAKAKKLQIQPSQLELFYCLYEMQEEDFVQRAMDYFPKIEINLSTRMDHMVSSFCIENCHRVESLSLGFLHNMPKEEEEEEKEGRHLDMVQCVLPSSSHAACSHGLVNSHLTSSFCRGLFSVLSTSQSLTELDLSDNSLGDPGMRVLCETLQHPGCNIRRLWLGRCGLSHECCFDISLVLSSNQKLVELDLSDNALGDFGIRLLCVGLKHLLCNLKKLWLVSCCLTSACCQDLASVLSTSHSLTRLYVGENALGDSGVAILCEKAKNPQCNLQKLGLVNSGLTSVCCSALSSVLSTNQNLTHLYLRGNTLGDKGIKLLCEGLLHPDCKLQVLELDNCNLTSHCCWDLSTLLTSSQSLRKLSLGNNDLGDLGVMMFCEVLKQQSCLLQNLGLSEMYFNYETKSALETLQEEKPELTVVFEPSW

As for `Cc1cc(C)c(-c2ccc(N3CCc4c(O)cccc43)nn2)c(O)c1` [Example 240, 1-[6-(2-hydroxy-4,6-dimethyl-phenyl)pyridazin-3-yl]indolin-4-ol], the results for the IC50 in experiment [1] and in experiment [2] were 421 nM and > 10000 nM, respectively.
The corresponding values for `Cc1cc(C)c(-c2ccc(N3CCc4c(CO)cccc43)nn2)c(O)c1` [Example 241, 2-[6-[4-(hydroxymethyl)indolin-1-yl]pyridazin-3-yl]-3,5-dimethyl-phenol] are 250 nM and > 10000 nM.
The corresponding values for `CCc1cc(C)c(-c2ccc(N3CCO[C@H](CO)C3)nn2)c(O)c1` [Example 245, 5-ethyl-2-[6-[(2S)-2-(hydroxymethyl)morpholin-4-yl]pyridazin-3-yl]-3-methylphenol] are 64 nM and > 10000 nM.
In the case of `CCc1cc(C)cc(O)c1-c1ccc(N2CCO[C@H](CO)C2)nn1` [Example 246, 3-ethyl-2-[6-[(2S)-2-(hydroxymethyl)morpholin-4-yl]pyridazin-3-yl]-5-methylphenol], the IC50 in experiment [1] is 12 nM; in experiment [2] it was > 10000 nM.
For the compound `OC[C@@H]1CN(c2cc(C(F)F)c(-c3ccc(C(F)(F)F)cc3O)nn2)CCO1` [Example 247, 2-[4-(difluoromethyl)-6-[(2S)-2-(hydroxymethyl)morpholin-4-yl]pyridazin-3-yl]-5-(trifluoromethyl)phenol], the IC50 was 168 nM in experiment [1] and > 10000 nM in experiment [2].
The corresponding values for `Cc1cc(C(F)(F)F)cc(O)c1-c1nnc(N2CCO[C@H](CO)C2)cc1C(F)F` [Example 248, 2-[4-(difluoromethyl)-6-[(2S)-2-(hydroxymethyl)morpholin-4-yl]pyridazin-3-yl]-3-methyl-5-(trifluoromethyl)phenol] are 81 nM and > 10000 nM.
Turning to `Cc1cc(Cl)cc(O)c1-c1nnc(N2CCO[C@H](CO)C2)cc1C(F)F` [Example 249, 5-chloro-2-[4-(difluoromethyl)-6-[(2S)-2-(hydroxymethyl)morpholin-4-yl]pyridazin-3-yl]-3-methyl-phenol], the IC50 was 151 nM in experiment [1] and > 10000 nM in experiment [2].
On to `Cc1cc(C(F)(F)F)cc(O)c1-c1ccc(N2C[C@@H](N)CC2=O)nn1` [Example 250, (4S)-4-amino-1-[6-[2-hydroxy-6-methyl-4-(trifluoromethyl)phenyl]pyridazin-3-yl]pyrrolidin-2-one], for which the IC50 in experiment [1] was 249 nM; in experiment [2], > 10000 nM.
Taken in the same sequence, the figures for `Cc1cc(C)c(-c2ccc(N3CCc4ccc(O)cc43)nn2)c(O)c1` [Example 254, 1-[6-(2-hydroxy-4,6-dimethyl-phenyl)pyridazin-3-yl]indolin-6-ol] were 460 nM and 9970 nM.
Taken in the same sequence, the figures for `Cc1cc(C(F)(F)F)cc(O)c1-c1ccc(N2CCO[C@H](C)C2)nn1` [Example 258, 3-methyl-2-[6-[(2R)-2-methylmorpholin-4-yl]pyridazin-3-yl]-5-(trifluoromethyl)phenol] were 30 nM and > 10000 nM.
Taken in the same sequence, the figures for `Cc1cc(C(F)(F)F)cc(O)c1-c1ccc(N2CCO[C@@H](C)C2)nn1` [Example 259, 3-methyl-2-[6-[(2S)-2-methylmorpholin-4-yl]pyridazin-3-yl]-5-(trifluoromethyl)phenol] were 67 nM and > 10000 nM.
Take `Cc1cc(C(F)(F)F)cc(O)c1-c1ccc(N2CCO[C@@H](CO)C2)nn1` [Example 266, 2-[6-[(2R)-2-(hydroxymethyl)morpholin-4-yl]pyridazin-3-yl]-3-methyl-5-(trifluoromethyl)phenol]: the values for the IC50 in experiment [1] and in experiment [2] were 73 nM and > 10000 nM, respectively.
For `CC(=O)NC[C@@H]1CN(c2ccc(-c3c(C)cc(Cl)cc3O)nn2)CCO1` [Example 267, N-[[(2R)-4-[6-(4-chloro-2-hydroxy-6-methyl-phenyl)pyridazin-3-yl]morpholin-2-yl]methyl]acetamide], the figures for the IC50 in experiment [1] and in experiment [2] were 185 nM and > 10000 nM, respectively.
Take `CN1CC[C@@H]2OCCN(c3cc(C(F)F)c(-c4ccc(C(F)(F)F)cc4O)nn3)[C@@H]2C1` [Example 268, 2-[6-[(4aR,8aS)-6-methyl-3,4a,5,7,8,8a-hexahydro-2H-pyrido[4,3-b][1,4]oxazin-4-yl]-4-(difluoromethyl)pyridazin-3-yl]-5-(trifluoromethyl)phenol]: the IC50 in experiment [1] was 263 nM; in experiment [2] it was > 10000 nM.
Taken in the same sequence, the figures for `Cc1cc(C)c(-c2ccc(N3CCCc4ccccc43)nn2)c(O)c1` [Example 272, 2-[6-(3,4-dihydro-2H-quinolin-1-yl)pyridazin-3-yl]-3,5-dimethyl-phenol] were 2340 nM and 6580 nM.
Taken in the same sequence, the figures for `Cc1cc(C(F)(F)F)cc(O)c1-c1ccc(N2CCCC(CO)C2=O)nn1` (stereo not shown) [Example 273, 3-(hydroxymethyl)-1-[6-[2-hydroxy-6-methyl-4-(trifluoromethyl)phenyl]pyridazin-3-yl]piperidin-2-one] were 456 nM and > 10000 nM.
Taken in the same sequence, the figures for `Cc1cc(C(C)C)cc(O)c1-c1ccc(N2CCO[C@H](CO)C2)nn1` [Example 274, 2-[6-[(2S)-2-(hydroxymethyl)morpholin-4-yl]pyridazin-3-yl]-5-isopropyl-3-methyl-phenol] were 171 nM and > 10000 nM.
Regarding `CC(=O)NC[C@H]1CN(c2ccc(-c3c(C)cc(C(F)(F)F)cc3O)nn2)CCO1` [Example 275, N-[[(2S)-4-[6-[2-hydroxy-6-methyl-4-(trifluoromethyl)phenyl]pyridazin-3-yl]morpholin-2-yl]methyl]acetamide], the values for the IC50 in experiment [1] and in experiment [2] were 127 nM and > 10000 nM, respectively.
Taken in the same sequence, the figures for `Cc1cc(C(F)(F)F)cc(O)c1-c1ccc(N2CCO[C@@H](CNC(=O)C(C)C)C2)nn1` [Example 276, N-[[(2S)-4-[6-[2-hydroxy-6-methyl-4-(trifluoromethyl)phenyl]pyridazin-3-yl]morpholin-2-yl]methyl]-2-methylpropanamide] were 515 nM and > 10000 nM.
The corresponding values for `Cc1cc(Cl)cc(O)c1-c1ccc(N2CCO[C@H](CNC(=O)C(C)C)C2)nn1` [Example 279, N-[[(2R)-4-[6-(4-chloro-2-hydroxy-6-methylphenyl)pyridazin-3-yl]morpholin-2-yl]methyl]-2-methylpropanamide] are 277 nM and > 10000 nM.
In the case of `CC(=O)NC[C@H]1CN(c2ccc(-c3c(C)cc(Cl)cc3O)nn2)CCO1` [Example 280, N-[[(2S)-4-[6-(4-chloro-2-hydroxy-6-methylphenyl)pyridazin-3-yl]morpholin-2-yl]methyl]acetamide], the IC50 was 76 nM in experiment [1] and > 10000 nM in experiment [2].
With `Cc1cc(Cl)cc(O)c1-c1ccc(N2CCO[C@@H](CNC(=O)C(C)C)C2)nn1` [Example 285, N-[[(2S)-4-[6-(4-chloro-2-hydroxy-6-methylphenyl)pyridazin-3-yl]morpholin-2-yl]methyl]-2-methylpropanamide], the results for the concentration for half-maximal inhibition (IC50) in experiment [1] and in experiment [2] were 65 nM and > 10000 nM, respectively.
The corresponding values for `Cc1cc(C)c(-c2cc(C(F)F)c(N3CCO[C@@H]4CCN(C)C[C@@H]43)nn2)c(O)c1` [Example 291, 2-[6-[(4aS,8aR)-6-methyl-3,4a,5,7,8,8a-hexahydro-2H-pyrido[4,3-b][1,4]oxazin-4-yl]-5-(difluoromethyl)pyridazin-3-yl]-3,5-dimethyl-phenol] are 1 nM and > 10000 nM.
